Where two headings read alike, the source gives them in different places. Each block holds one compound with its values, some of them ahead of it.
Tests used:
[1] = target: T1, OCT1 (Homo sapiens, UniProt O15245); experiment: Inhibition of model substrate uptake in OCT1-overexpressing HEK293 cells; type: cell-based; design: expressed in transfected cells; host or cells: HEK293; details: OCT1, 20 μM inhibitor, 5 min; for inhibition at 5 min, 20 μM: human, OCT1-overexpressing HEK293 cells
T1 sequence (O15245 1-554): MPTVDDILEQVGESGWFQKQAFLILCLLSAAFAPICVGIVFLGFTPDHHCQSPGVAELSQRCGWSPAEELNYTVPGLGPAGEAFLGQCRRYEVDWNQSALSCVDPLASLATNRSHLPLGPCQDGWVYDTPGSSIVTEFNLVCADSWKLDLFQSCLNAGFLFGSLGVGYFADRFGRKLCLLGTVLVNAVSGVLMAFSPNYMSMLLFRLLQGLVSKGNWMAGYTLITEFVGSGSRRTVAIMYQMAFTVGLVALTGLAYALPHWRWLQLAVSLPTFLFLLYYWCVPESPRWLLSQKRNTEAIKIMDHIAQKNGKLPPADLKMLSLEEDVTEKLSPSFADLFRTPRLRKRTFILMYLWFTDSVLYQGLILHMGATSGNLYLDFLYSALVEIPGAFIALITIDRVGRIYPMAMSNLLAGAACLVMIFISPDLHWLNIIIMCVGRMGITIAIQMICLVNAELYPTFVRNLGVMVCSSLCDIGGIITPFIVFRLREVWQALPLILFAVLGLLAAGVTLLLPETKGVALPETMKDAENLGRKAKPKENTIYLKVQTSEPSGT
Method: (§1) Koepsell and Gorbulev (University of Würzburg, Germany).
Fluorescence quantification was performed in technical duplicates.

[2] = target: T2, OCT3 (Homo sapiens, UniProt O75751); experiment: Inhibition of model substrate uptake in OCT3-overexpressing HEK293 cells; type: cell-based; details: 20 μM inhibitor, 5 min
T2 construct: expressed in transfected cells; host or cells: HEK293
T2 sequence (O75751 1-556): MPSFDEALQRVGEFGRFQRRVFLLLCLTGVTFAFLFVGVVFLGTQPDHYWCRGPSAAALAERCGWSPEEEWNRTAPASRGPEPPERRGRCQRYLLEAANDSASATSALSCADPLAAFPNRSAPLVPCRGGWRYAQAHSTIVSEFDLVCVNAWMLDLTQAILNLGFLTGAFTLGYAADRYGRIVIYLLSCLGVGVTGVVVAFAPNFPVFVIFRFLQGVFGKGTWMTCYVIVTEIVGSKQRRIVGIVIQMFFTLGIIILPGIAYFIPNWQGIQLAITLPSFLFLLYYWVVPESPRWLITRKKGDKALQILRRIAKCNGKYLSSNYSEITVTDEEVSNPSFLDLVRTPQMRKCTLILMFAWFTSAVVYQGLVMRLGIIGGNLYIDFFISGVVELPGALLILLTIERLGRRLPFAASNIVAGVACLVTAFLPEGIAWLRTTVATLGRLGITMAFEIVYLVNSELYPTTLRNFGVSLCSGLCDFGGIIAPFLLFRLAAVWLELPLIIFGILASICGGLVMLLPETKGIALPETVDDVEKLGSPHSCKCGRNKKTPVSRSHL
How it was run: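 Transporter-overexpressing HEK293 cells were incubated 5 min in HBSS+ with 2 μM model substrate, with or without 20 μM inhibitor or increasing inhibitor concentrations. Uptake was read as ASP^+ fluorescence or by LC–MS/MS, with empty-vector uptake subtracted. IC50 came from a Hill fit of activity versus log concentration.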

[3] = target: T3, OCT2 (Homo sapiens, UniProt O15244); experiment: Inhibition of model substrate uptake in OCT2-overexpressing HEK293 cells; details: for IC50: IC50 [μM], OCT2, Table 1
T3 sequence (O15244 1-555): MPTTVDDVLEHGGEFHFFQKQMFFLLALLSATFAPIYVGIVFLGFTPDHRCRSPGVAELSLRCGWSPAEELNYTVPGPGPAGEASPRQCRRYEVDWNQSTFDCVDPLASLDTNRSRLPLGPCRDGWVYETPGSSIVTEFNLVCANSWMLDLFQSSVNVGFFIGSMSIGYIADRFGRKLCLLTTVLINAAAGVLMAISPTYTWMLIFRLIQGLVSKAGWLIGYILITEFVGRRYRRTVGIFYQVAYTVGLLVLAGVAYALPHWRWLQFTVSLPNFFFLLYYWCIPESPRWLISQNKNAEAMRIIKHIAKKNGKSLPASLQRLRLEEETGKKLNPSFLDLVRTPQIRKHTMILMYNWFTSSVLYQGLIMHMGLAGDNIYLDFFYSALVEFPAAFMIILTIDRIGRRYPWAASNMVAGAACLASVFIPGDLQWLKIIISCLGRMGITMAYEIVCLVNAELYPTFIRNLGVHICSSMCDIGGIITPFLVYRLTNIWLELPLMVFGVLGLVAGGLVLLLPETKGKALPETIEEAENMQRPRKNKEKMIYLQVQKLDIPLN

[4] = oral administration, cited from earlier work
[5] = target: T1, OCT1; details: cited from earlier work
[6] = target: T1, OCT1; experiment: Concentration-dependent uptake of model substrates, OCT1-overexpressing HEK293 cells; type: in vitro ADME; design: expressed in transfected cells; host or cells: HEK293; details: vmax over Km, this study
Method: as §1
(§2) Prior to inhibition studies, the used model substrates were validated in concentration-dependent uptake experiments if no literature data were available (Table S2 and Figures S2 and S3). Thereby, we ensured that the model substrate concentration used in the subsequent inhibition experiments was sufficiently below the Km value of its uptake kinetics. […] On the day of the experiment, the cells were washed once with prewarmed to 37 °C HBSS (Thermo Fisher Scientific, Darmstadt, Germany) supplemented with 10 mM HEPES and pH adjusted to 7.4 (Sigma-Aldrich)—hereafter termed HBSS+. For concentration-dependent experiments, the cells were incubated with increasing substrate concentrations for 2 min. Uptake was terminated by adding ice-cold HBSS+. Afterward, the cells were washed twice with ice-cold HBSS+, and cell lysis was done with 80% (v/v) acetonitrile (LGC Standards, Wesel, Germany) to which an internal standard for eventual LC–MS/MS analysis had been added. Intracellularly accumulated substrates were then quantified by LC–MS/MS analysis, and calibration was performed with known concentrations of the respective substances. All uptake data were normalized to the number of seeded cells by measuring the total protein content in radioimmunoprecipitation assay buffer-lysed cells in a bicinchoninic acid assay.[29]

[7] = target: T2, OCT3; experiment: Concentration-dependent uptake of model substrates, OCT3-overexpressing HEK293 cells; type: in vitro ADME; details: vmax over Km, this study
Method: as §1, §2

[8] = target: T3, OCT2; experiment: Concentration-dependent uptake of model substrates, OCT2-overexpressing HEK293 cells; type: in vitro ADME; design: expressed in transfected cells; host or cells: HEK293; details: vmax over Km, this study
Method: as §1, §2

[9] = 2 μM ASP+, mean of three experiments
[10] = OCT2, 20 μM inhibitor, 2 μM ASP+, 5 min
[11] = OCT2, 20 μM inhibitor, 2 μM N-ethyllidocaine, 5 min
[12] = ref 2 (Matthaei et al., 2016, supplement)

(S,S)-Ethambutol inhibition [%] ([1]; 2 μM (S,S)-ethambutol): 51.7%
ASP+ inhibition [%] [1, 9]: 23.5%
Sumatriptan inhibition [%] ([1]; 2 μM sumatriptan): 15.2%
(S)-Zolmitriptan inhibition [%] ([2]; OCT3, 2 μM (S)-zolmitriptan): 46.0%
(S,S)-Ethambutol inhibition [%] ([2]; OCT3, 2 μM (S,S)-ethambutol): 73.1%
ASP+ inhibition [%] ([2]; OCT3, 2 μM ASP+): 33.7%
IC50 [3]: 29.8 µM
(S,S)-Ethambutol inhibition [%] ([3]; OCT2, 20 μM inhibitor, 2 μM (S,S)-ethambutol, 5 min): -13.2%
ASP+ inhibition [%] [3, 10]: 38.0%
N-Ethyllidocaine inhibition [%] [3, 11]: 1.9%
Compound: CCN1CCC[C@H]1CNC(=O)c1cc(S(=O)(=O)CC)c(N)cc1OC [(S)-Amisulpride]
selectivity ratio at 5 min ([3]; human, OCT2-overexpressing HEK293 cells, pH 7.4): 3.2
Imax ([4]; amisulpride, single dose (50 mg)): 0.182 µM

inhibition at 5 min, 20 μM ([1]; pH 7.4, probe (S,S)-ethambutol (2 μM), (S,S)-Ethambutol inhibition [%], 2 μM (S,S)-ethambutol): 72.8%
inhibition at 5 min, 20 μM ([1]; pH 7.4, probe ASP+ (2 μM), 2 μM ASP+, mean of three experiments, read-out: ASP+ inhibition [%]): 28.9%
inhibition at 5 min, 20 μM ([1]; pH 7.4, probe sumatriptan (2 μM), 2 μM sumatriptan, read-out: Sumatriptan inhibition [%]): 78%
inhibition at 20 µM ([2]; HEK293, 5 min, read-out: (S)-Zolmitriptan inhibition [%], OCT3, 2 μM (S)-zolmitriptan): 11.8%
inhibition at 20 µM ([2]; HEK293, 5 min, read-out: (S,S)-Ethambutol inhibition [%], OCT3, 2 μM (S,S)-ethambutol): 17.2%
inhibition at 20 µM ([2]; HEK293, OCT3, 2 μM ASP+, read-out: ASP+ inhibition [%]): 4.5%
IC50 [3]: 17.8 µM
inhibition at 5 min, 20 μM ([3]; human, OCT2-overexpressing HEK293 cells, pH 7.4, probe (S,S)-ethambutol (2 μM), (S,S)-Ethambutol inhibition [%], OCT2, 20 μM inhibitor, 2 μM (S,S)-ethambutol, 5 min): 1.4%
inhibition at 5 min, 20 μM ([3]; human, OCT2-overexpressing HEK293 cells, pH 7.4, probe ASP+ (2 μM), ASP+ inhibition [%], OCT2, 20 μM inhibitor, 2 μM ASP+, 5 min): 52.1%
inhibition at 5 min, 20 μM ([3]; human, OCT2-overexpressing HEK293 cells, pH 7.4, probe N-ethyllidocaine (2 μM), N-Ethyllidocaine inhibition [%], OCT2, 20 μM inhibitor, 2 μM N-ethyllidocaine, 5 min): 28.4%
Compound: CN(C)CCC[C@]1(c2ccc(F)cc2)OCc2cc(C#N)ccc21 [(R)-Citalopram]
Imax ([4]; citalopram, multiple doses (40 mg, once daily for 21 d)): 0.228 µM

Compound: CNS(=O)(=O)Cc1ccc2[nH]cc(CCN(C)C)c2c1 [Sumatriptan]
Km ([5]; read-out: Km ± SEM, ref 2 (Matthaei et al., 2016, supplement)): 55.4 µM
Clint ± SEM [5, 12]: 17.6
vmax ± SEM [pmol × mg Protein−1 × min−1] [5, 12]: 978 pmol × mg Protein−1 × min−1

ASP+ inhibition [%] [1, 9]: 5.5%
Sumatriptan inhibition [%] ([1]; 2 μM sumatriptan): 17.8%
Clint ± SEM [6]: 14.1
Clint ± SEM [7]: 16.9
(S)-Zolmitriptan inhibition [%] ([2]; OCT3, 2 μM (S)-zolmitriptan): -1.3%
ASP+ inhibition [%] ([2]; OCT3, 2 μM ASP+): 3.7%
ASP+ inhibition [%] [3, 10]: 38.8%
N-Ethyllidocaine inhibition [%] [3, 11]: 10.0%
Clint ± SEM [8]: 36.6
Compound: CCC(CO)NCCNC(CC)CO [(S,S)-Ethambutol]

From paper PMC10698726 (Molecular Pharmaceutics, 2023)
